From patent US20230285399A1, “Compound for the treatment and prophylaxis of a lipofuscin-associated disease and/or a disease associated with aged oxidized melanin” (EBERHARD KARLS UNIVERSITAET TUEBINGEN MEDIZINISCHE FAKULTAET, priority 2020, published 2023)
“Also recorded” adds a separate entry of the source.

Columns and labels:
function of the retina = conditions: mouse, in vivo
pigmented Abca^4−/− mice [1] = conditions: mouse, in vivo
pigmented Abca^4−/− mice [2] = assay: Combination of SIN-1 with riboflavin, quantification of fluorescent lipofuscin granules; format: in vivo; conditions: 130 μg SIN-1 alone or with 80 μg Riboflavin, intravitreal, 48 hours; 100% is stated as locally
albino Abca^4−/− mice [3] = assay: Analysis of degradation products from lipofuscin (bisretinoids) after SIN-1 by HPLC; format: in vivo; conditions: 130 μg SIN-1 into the right eye, 48 hours, 6 month old albino mice
Description: (§1) Seven albino and 6 pigmented mice were used. The left eyes remained untreated as control. After 48 hours the eyes from the Abca^4-/- mice were enucleated, immediately snap-frozen and stored at -80° C. for further processing. All the tissue preparation was made under dim red light and bisretinoids were extracted from the whole eyes and analyzed by HPLC following published protocols (Radu et al. 2004; Fang et al. 2020). Data were presented as picomoles per eye for A2E, iso-A2E, Total A2E or milli-absorbance (mAU) per eye for the other bisretinoids: […], dihydro-A2PE (A2PE-H2), and all-trans-RAL-dimer PE conjugates (at-RAL dimer-PE) as described (Radu et al. 2004).

pigmented Abca^4−/− mice [4] = assay: as above; format: in vivo; conditions: 130 μg SIN-1 into the right eye, 48 hours, 6 month old mice, whole eyes; stated for all mice
Description: as §1

pigmented Abca^4−/− mice [5] = assay: Removal of lipofuscin from RPE with SIN-1, fluorescence microscopy (SW-AF, NIR-AF) of semi-thin eye sections; format: in vivo
Description: Pigmented WT mice (12952), pigmented Abca^4-/- mice (12954/SvJae-Abca4[…] albino Abca^4-/- mice^(BALB/c-Abca4tm1Ght) (Stargardt mice) were used in this work. WT mice were purchased from Harlan Laboratories ([…], UK), the knock-out strains were bred in the inventor's in-house facility. Light cycling was 12 h light (approximately 50 lx in cages)/12 h dark, food and water were available ad libitum. Animals were anesthetized by i.p. injection of a mix of fentanyl (0.05 mg/kg body weight), midazolam (5.0 mg/kg body weight) and medetomidine (0.50 mg/kg body weight). […] The mice were 2 years old. The left eyes remained untreated as controls. The mice were killed 48 hours after the injections and the eyes were […]. Mouse eyes were fixed, embedded in epon resin and sectioned according to standard procedures. For fluorescence analysis, post-fixation and staining with heavy metals was omitted. […] Filter sets were a custom made lipofuscin filter set (excitation 370/36 nm, emission 575/15, 400 nm beam splitter) for short wavelength-autofluorescence (SW-AF) and a commercial Cy7 filter set (excitation 708/75 nm, emission 809/81 nm, 757 nm beam splitter) for NIR-AF (Near infrared AF), respectively. The lipofuscin filter set is designed to fit the reported excitation and emission maximums for lipofuscin. Binning x2 was applied for all images and acquisition times, as well as microscope and software settings were held constant for any set of samples to allow comparison of fluorescence intensities. If indicated, images with low AF intensities were post-processed with the Auto adjust colors function of the […] software to allow the localization of weak AF signals. This function enhances the contrast by redefining the darkest pixel as pure black and the brightest pixel as pure white in the histogram on a channel-by-channel basis. Fluorescence intensities were determined using Fiji software. Regions of interest were determined in fluorescence and BF images using the default threshold, and area and integrated optical density (IOD) of the region of interest were measured. […] Student's t-test with JMP 13 software (SAS, Cary, NC, USA) was used for statistical analysis. P<0·05 was considered statistically significant.

albino Abca^4−/− mice [6] = assay: Removal of lipofuscin from RPE with SIN-1, fluorescence microscopy (SW-AF) of semi-thin eye sections; format: in vivo; conditions: 130 μg SIN-1 into the right eye, 48 hours, vs untreated eyes
Description: Pigmented WT mice (12952), pigmented Abca^4-/- mice (12954/SvJae-Abca4[…] albino Abca^4-/- mice^(BALB/c-Abca4tm1Ght) (Stargardt mice) were used in this work. WT mice were purchased from Harlan Laboratories ([…], UK), the knock-out strains were bred in the inventor's in-house facility. Light cycling was 12 h light (approximately 50 lx in cages)/12 h dark, food and water were available ad libitum. Animals were anesthetized by i.p. injection of a mix of fentanyl (0.05 mg/kg body weight), midazolam (5.0 mg/kg body weight) and medetomidine (0.50 mg/kg body weight). […] The mice were 2 years old. The left eyes remained untreated as controls. The mice were killed 48 hours after the injections and the eyes were […]. Mouse eyes were fixed, embedded in epon resin and sectioned according to standard procedures. For fluorescence analysis, post-fixation and staining with heavy metals was omitted. […] Binning x2 was applied for all images and acquisition times, as well as microscope and software settings were held constant for any set of samples to allow comparison of fluorescence intensities. […] Fluorescence intensities were determined using Fiji software. Regions of interest were determined in fluorescence and BF images using the default threshold, and area and integrated optical density (IOD) of the region of interest were measured. […]

[7] = SIN-1 treated eye vs untreated eye of the same mouse

Row | SMILES | ERG responses, treated vs untreated eye (function of the retina) | fluorescence of lipofuscin (fluorescence intensity, arbitrary units, FIG. 3) (pigmented Abca^4−/− mice [1]) | reduction of the amount of fluorescent lipofuscin granules (pigmented Abca^4−/− mice [1]) [%] | removal of fluorescent lipofuscin granules from the RPE cells (pigmented Abca^4−/− mice [2]) [%] | enhancement of lipofuscin metabolites in albino mice compared with pigmented mice (albino Abca^4−/− mice [3]) | amount of degradation products of lipofuscin (A2E, iso-A2E, Total A2E, A2PE, A2PE-H2, at-RAL dimer-PE) (pigmented Abca^4−/− mice [4]) | lipofuscin content in the retinal pigment epithelium (RPE), recognized by the loss of SW-AF (pigmented Abca^4−/− mice [5]; 130 μg SIN-1 into the right eye, 48 hours, mean of 5 eyes vs 5 untreated eyes, mice 2 years old) | NIR-AF fluorescence of the melanosomes (RPE) (pigmented Abca^4−/− mice [5]; 130 μg SIN-1 into the right eye, 48 hours, vs untreated eye) | NIR-AF in the melanosomes of the choroidal melanocytes (pigmented Abca^4−/− mice [5]; [7]) | number of lipofuscin granules in SW-AF image of semi thin sections (pigmented Abca^4−/− mice [5]; [7]) | fluorescence of lipofuscin (SW-AF) (albino Abca^4−/− mice [6]) | number of lipofuscin granules in RPE cell layer under the fluorescence microscope (FIG. 4) (pigmented Abca^4−/− mice [1])
1 | O=[N+]([O-])O[C@@H]1CO[C@H]2[C@@H]1OC[C@@H]2O [IS5, Isosorbide mononitrate] | no difference between the treated and the untreated eyes | removed the fluorescence of lipofuscin | 77 |  |  |  |  |  |  |  |  | 
2 | N=c1c[n+](N2CCOCC2)[n-]o1 [SIN-1, 3-morpholinosydnonimine] |  |  |  | 75 | much lesser | enhanced the amount of the degradation products of lipofuscin significantly | significant (p<0.05) reduction | reduced but not significant (p>0.05); also recorded: somewhat diminished | seems to be not effected | reduced in number | no effect | 
3 | O=[N+]([O-])OC1COC2C(O[N+](=O)[O-])COC12 (centres unmarked) [Isoket, 3,6-bisnitrooxyhexahydrofuro[3,2-b]-furan] | no difference between the treated and the untreated eyes | removed the fluorescence of lipofuscin |  |  |  |  |  |  |  |  |  | reduced the number of lipofuscin granules clearly
